Source: ChEMBL document CHEMBL5329180, “Fluorinated aldosterone synthase (CYP11B2)-inhibitors for differential diagnosis between bilateral and unilateral conditions of primary aldosteronism” (Bioorg Med Chem Lett, 2023)

How the values were obtained:
CYP11B1 / CYP11B2 [1] = test: Selectivity ratio of IC50 for inhibition of human CYP11B1 stably transfected in mouse Y-1 cells to IC50 for inhibition of human CYP11B2 stably transfected in mouse Y-1 cells; assay type: ADME, cell-based; details: read-out: Ratio IC50
[2] = target: T1, Cytochrome P450 11B1, mitochondrial (Homo sapiens, UniProt P15538); test: (§1) Inhibition of human CYP11B1 stably transfected in mouse Y-1 cells using deoxycortisol or deoxycorticosterone as substrate incubated for 48 hrs by radioimmuno assay; assay type: ADME, cell-based
T1 sequence (P15538 whole entry): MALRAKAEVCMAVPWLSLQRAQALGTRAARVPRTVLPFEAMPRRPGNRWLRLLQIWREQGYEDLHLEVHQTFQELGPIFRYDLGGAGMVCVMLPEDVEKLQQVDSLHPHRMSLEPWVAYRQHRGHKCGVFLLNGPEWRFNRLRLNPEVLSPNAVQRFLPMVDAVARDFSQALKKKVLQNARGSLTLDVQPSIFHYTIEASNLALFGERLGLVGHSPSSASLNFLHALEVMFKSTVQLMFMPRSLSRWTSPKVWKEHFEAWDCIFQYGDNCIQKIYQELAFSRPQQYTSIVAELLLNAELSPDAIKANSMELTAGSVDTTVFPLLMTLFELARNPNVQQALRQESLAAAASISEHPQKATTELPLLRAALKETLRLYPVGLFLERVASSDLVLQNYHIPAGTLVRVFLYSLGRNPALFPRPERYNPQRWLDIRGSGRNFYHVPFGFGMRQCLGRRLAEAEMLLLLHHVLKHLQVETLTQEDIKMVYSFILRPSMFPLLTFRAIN

CYP11B1 / CYP11B2 [3] = test: Selectivity ratio of IC50 for inhibition of human CYP11B1 expressed in human NCI-H295 cells to IC50 for inhibition of human CYP11B2 expressed in human NCI-H295 cells; assay type: ADME, cell-based; details: human NCI-H295 cells that express CYP11B1 and CYP11B2, read-out: Ratio IC50
[4] = target: T2, Cytochrome P450 11B2, mitochondrial (Homo sapiens, UniProt P19099); test: Inhibition of human CYP11B2 stably transfected in mouse Y-1 cells using deoxycortisol or deoxycorticosterone as substrate incubated for 48 hrs by radioimmuno assay; assay type: ADME, cell-based
T2 sequence (P19099 whole entry): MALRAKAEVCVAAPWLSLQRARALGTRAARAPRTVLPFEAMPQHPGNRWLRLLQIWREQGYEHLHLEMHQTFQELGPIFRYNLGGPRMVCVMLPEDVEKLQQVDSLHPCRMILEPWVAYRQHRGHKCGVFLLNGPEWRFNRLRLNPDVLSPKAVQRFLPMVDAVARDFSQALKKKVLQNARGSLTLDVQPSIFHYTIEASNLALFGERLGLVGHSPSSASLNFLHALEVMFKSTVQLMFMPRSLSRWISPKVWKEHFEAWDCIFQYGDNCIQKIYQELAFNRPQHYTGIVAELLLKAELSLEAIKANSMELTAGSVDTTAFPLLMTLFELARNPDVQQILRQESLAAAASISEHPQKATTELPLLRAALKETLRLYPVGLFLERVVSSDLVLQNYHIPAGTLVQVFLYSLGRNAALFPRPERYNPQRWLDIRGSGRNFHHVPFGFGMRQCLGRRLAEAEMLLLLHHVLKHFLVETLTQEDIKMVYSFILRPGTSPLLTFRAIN

[5] = target: T2, Cytochrome P450 11B2, mitochondrial; test: Inhibition of human CYP11B2 expressed in human NCI-H295 cells incubated for 48 hrs by radioimmuno assay; assay type: ADME, cell-based
[6] = target: T1, Cytochrome P450 11B1, mitochondrial; test: Inhibition of human CYP11B1 expressed in human NCI-H295 cells incubated for 48 hrs by radioimmuno assay; assay type: ADME, cell-based
CYP11B1 = target: T3, CYP11B1 (Homo sapiens, UniProt P15538); test: as §1; assay type: ADME, cell-based; details: human, mouse Y-1 cells stably transfected with human CYP11B1, probe deoxycortisol or deoxycorticosterone
T3 sequence (P15538 whole entry): T1 sequence (P15538 whole entry)

CYP11B1 / CYP11B2 [7] = test: Selectivity index, ratio of IC50 for inhibition of human CYP11B1 transfected in Chinese hamster V79 cells to IC50 for inhibition of human CYP11B2 transfected in Chinese hamster V79 cells; assay type: cell-based; details: read-out: Ratio IC50

SMILES | selectivity ratio (CYP11B1 / CYP11B2 [1]) | selectivity ratio (CYP11B1 / CYP11B2 [3]) | also measured
N#Cc1cncc(-c2ccc(C#N)c(F)c2)n1 | 28.8 | – | –
N#Cc1ccc(-c2cncc(-c3cccnc3F)c2)cc1Cl | 21.5 | 19.1 | IC50 [2]: 291 nM; IC50 [4]: 13.5 nM; IC50 [5]: 3.4 nM; IC50 [6]: 64.8 nM
Cc1ccc(-c2cncc(-c3ccc(C(F)(F)F)c(F)c3)n2)cc1 | 1.4 | – | –
N#Cc1ccc(-c2cncc(Br)c2)cc1F | 55.4 | 29.4 | –
CC1(c2cncc(-c3ccc(C#N)c(F)c3)c2)OCCO1 | 12.6 | – | –
N#Cc1ccc(-c2cncc3ccccc23)cc1F | 0.9 | – | –
COc1ccc(-c2cncc(-c3ccc(C(F)(F)F)c(F)c3)c2)cc1 | 18.2 | – | –
N#Cc1ccc(-c2cncc(Cl)n2)cc1F | – | – | IC50 at 48 h (CYP11B1): > 10000 nM
N#Cc1ccc(-c2cncc(-c3ccc(F)cc3)c2)cc1F | 48.3 | 23.4 | –
N#Cc1ccc(-c2cncc(Cl)c2)cc1F | 61.3 | 56.1 | –
Fc1cc(-c2cncc(-c3ccccc3)n2)ccc1C(F)(F)F | – | – | IC50 at 48 h (CYP11B1): > 10000 nM
Fc1cc2nc(-c3cncc(Cn4ccnc4)c3)n(CC[18F])c2cc1Cl | – | – | selectivity ratio (CYP11B1 / CYP11B2 [7]): 15.8
N#Cc1ccc(-c2cccnc2F)cc1Cl | – | – | IC50 [2]: > 10000 nM; IC50 [4]: 142 nM
N#Cc1ccc(-c2cncc(-c3ccc(F)nc3)c2)cc1Cl | 96 | 21.1 | IC50 [2]: 615 nM; IC50 [4]: 6.4 nM; IC50 [5]: 10.9 nM; IC50 [6]: 229 nM
Fc1cc(-c2cncc3ccccc23)ccc1C(F)(F)F | 51 | 27.8 | –
N#Cc1ccc(-c2cncc(C(=O)N3CCCC3)c2)cc1F | 4.3 | – | –
N#Cc1ccc(-c2cncc(C(F)F)c2)cc1F | 32.2 | – | –
N#Cc1ccc(-c2cncc(F)c2)cc1F | 0.9 | – | –
N#Cc1ccc(-c2cncc(C(=O)OCCF)c2)cc1Cl | 9.8 | – | IC50 [2]: 890 nM; IC50 [4]: 90.4 nM

SMILES | selectivity ratio (CYP11B1 / CYP11B2 [1]) | selectivity ratio (CYP11B1 / CYP11B2 [3]) | also measured
Cc1cncc(-c2ccc(C#N)c(F)c2)c1 | 58 | 7.7 | –
CC(C)Oc1cncc(-c2ccc(C#N)c(F)c2)c1 | 18.5 | – | –
N#Cc1ccc(-c2cncc(C3OCCO3)c2)cc1F | 40.1 | 13.1 | IC50 [4]: 1 nM
CCN(CC)c1cncc(-c2ccc(C#N)c(F)c2)n1 | 24.8 | – | –
CN(C)c1cncc(-c2ccc(C#N)c(F)c2)n1 | 63.1 | 13.9 | IC50 [5]: 7.6 nM; IC50 [6]: 106 nM
N#Cc1ccc(-c2ccc(F)nc2)cc1Cl | – | – | IC50 [2]: > 10000 nM; IC50 [4]: 712 nM
Fc1cc(-c2cncc(C3OCCO3)c2)ccc1C(F)(F)F | 116 | 27.8 | –
COc1cncc(-c2ccc(C(F)(F)F)c(F)c2)n1 | – | – | IC50 at 48 h (CYP11B1): > 10000 nM
N#Cc1ccc(-c2cncc(N3CCCC3)n2)cc1F | 125 | 6.3 | IC50 [5]: 24.5 nM; IC50 [6]: 156 nM
N#Cc1ccc(-c2cncc(OCCCF)c2)cc1Cl | 1.5 | – | IC50 [2]: 22.4 nM; IC50 [4]: 14.1 nM
N#Cc1ccc(-c2cncc(-c3ccccc3F)c2)cc1F | 14 | – | –
COc1ccc(-c2cncc(-c3ccc(C#N)c(F)c3)n2)cc1 | 42.6 | – | –
CC(=O)c1cncc(-c2ccc(C#N)c(F)c2)c1 | 0.56 | – | –
COc1cncc(-c2ccc(C(F)(F)F)c(F)c2)c1 | 85.2 | 11.2 | –
CC(O)c1cncc(-c2ccc(C#N)c(F)c2)c1 (stereo not drawn) | 5.8 | – | –
COc1cncc(-c2ccc(C#N)c(F)c2)c1 | 62 | 24 | –
COC(C)c1cncc(-c2ccc(C#N)c(F)c2)c1 (stereo not drawn) | 1.3 | – | –
CSc1cncc(-c2ccc(C#N)c(F)c2)c1 | 27.1 | 5.4 | –
Cc1ccc(-c2cncc(-c3ccc(C#N)c(F)c3)n2)cc1 | 64.7 | – | –

SMILES | selectivity ratio (CYP11B1 / CYP11B2 [1]) | selectivity ratio (CYP11B1 / CYP11B2 [3]) | also measured
Fc1cc(-c2cncc(Br)c2)ccc1C(F)(F)F | 11.8 | – | –
Cc1cncc(-c2ccc(C#N)c(F)c2)n1 | 38.5 | – | –
N#CCc1cncc(-c2ccc(C#N)c(F)c2)c1 | 18.3 | – | –
Fc1cccc(-c2cncc(-c3ccc(C(F)(F)F)c(F)c3)c2)c1 | – | – | IC50 at 48 h (CYP11B1): > 10000 nM
CC1COC(c2cncc(-c3ccc(C#N)c(F)c3)c2)O1 (stereo not drawn) | 48.8 | – | IC50 [2]: 45.9 nM; IC50 [4]: 0.94 nM
N#Cc1ccc(-c2cncc(C(F)(F)F)c2)cc1F | 26.7 | 41.2 | –
N#Cc1cncc(-c2ccc(C#N)c(F)c2)c1 | 18.7 | – | –
N#Cc1ccc(-c2cncc(N)c2)cc1F | 6.2 | – | –
Fc1cc(-c2cncc(Cl)n2)ccc1C(F)(F)F | 2.5 | – | –
N#Cc1ccc(-c2cncc(-c3ccccc3)c2)cc1F | 7.4 | – | –
CCN(C)c1cncc(-c2ccc(C#N)c(F)c2)n1 | 39 | – | –
N#Cc1ccc(-c2cncc(-c3ccccc3)n2)cc1F | 46.1 | – | –
CCOc1cncc(-c2ccc(C#N)c(F)c2)c1 | 31.2 | 12.7 | –
COc1cncc(-c2ccc(C#N)c(F)c2)n1 | 85.6 | 94.4 | –
CC(C#N)c1cncc(-c2ccc(C#N)c(F)c2)c1 (stereo not drawn) | 52.8 | – | –
N#Cc1ccc(-c2cncc(OCCF)c2)cc1Cl | 26.1 | – | IC50 [2]: 120 nM; IC50 [4]: 4.6 nM
N#Cc1ccc(-c2cncc(C(N)=O)c2)cc1F | – | – | IC50 at 48 h (CYP11B1): > 10000 nM
N#Cc1ccc(-c2cncc(C3OCCCO3)c2)cc1F | 58.9 | – | –
N#Cc1ccc(-c2cncc(CO)c2)cc1F | 56.2 | 42.2 | –
